The values that follow come from PubChem BioAssay (NCI).

Each structure is given as a SMILES string. Where “and” joins values, the source holds several entries; their conditions need not be identical. Equal entries are not always repeated.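 Step 1: Grow cells in 96-well plates. Step 2: Expose to compound for 48 hours at 5 concentrations. Step 3: Interpolate endpoints linearly; if unreached, use highest concentration. Here, GI50 denotes the concentration required for 50% inhibition of growth. TGI: concentration producing complete growth inhibition.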

Among the test systems are NCI-H226 lung; SK-OV-3 ovarian; UO-31 renal; IGROV1 ovarian; PC-3 prostate; DU-145 prostate; MALME-3M melanoma; SF-295 CNS; HCT-116 colon; 786-0 renal.
Holding throughout (test): inhibition of tumour cell growth, NCI panel, 48 h

As to `COC(=O)[C@]12CC=C3O[C@@H]4OC5(CCCCC5)O[C@@H]4[C@H]3C1C(=O)C=CC2=O` (some centres not stated), the TGI in the test on NCI-H226 lung came to 34.5 µM; with SK-OV-3 ovarian, 48.7 µM; in the test on UO-31 renal it was 30.8 µM; in the test on IGROV1 ovarian, 34.5 µM; in the test with PC-3 prostate it was 52.3 µM; with DU-145 prostate, 47.2 µM. Besides, the TGI turned out to be 34.2 µM in the test on MALME-3M melanoma, 42.2 µM in the test on SF-295 CNS, 32.4 µM with HCT-116 colon and 30.8 µM in the test with 786-0 renal.
In the case of `Cc1ccc(Oc2nc3ccccc3cc2-c2nnc(Cn3c(COc4ccccc4)nc4ccccc43)o2)cc1`, the GI50 was 5.99 µM with NCI-H226 lung; 11.8 µM with SK-OV-3 ovarian; 1.19 µM with UO-31 renal; 3.25 µM with IGROV1 ovarian; 2.71 µM in the test with PC-3 prostate; 5.46 µM with DU-145 prostate. For the same compound, the GI50 with MALME-3M melanoma is 3.65 µM; in the test with SF-295 CNS, 3.48 µM; with HCT-116 colon it was 0.431 µM; with 786-0 renal, 3.09 µM. Besides, the TGI in the test with NCI-H226 lung amounted to 31.4 µM; in the test on SK-OV-3 ovarian, 32.7 µM; in the test on UO-31 renal, 10.2 µM; in the test on IGROV1 ovarian, 22 µM; with PC-3 prostate, 15.4 µM; with DU-145 prostate, 45.7 µM. Moreover, the TGI in the test on MALME-3M melanoma turned out to be 15.6 µM; with SF-295 CNS, 14.1 µM; in the test on HCT-116 colon, 1.64 µM; with 786-0 renal it was 11.8 µM.
In the case of `Cc1cc(C)c2c(N)c3cccc(C)c3nc2n1`, the GI50 was 1.2 µM in the test with NCI-H226 lung; 2.11 µM in the test with SK-OV-3 ovarian; 1.9 µM in the test on UO-31 renal; 3.17 µM in the test with IGROV1 ovarian; 2.44 µM in the test on PC-3 prostate; 2.33 µM with DU-145 prostate. Also, the GI50 is 1.93 µM in the test on MALME-3M melanoma, 1.44 µM in the test with SF-295 CNS, 0.667 µM in the test with HCT-116 colon and 2.35 µM with 786-0 renal. Also, the TGI with NCI-H226 lung was 4.49 µM; in the test with SK-OV-3 ovarian, 9.36 µM; with UO-31 renal it was 59.6 µM; in the test with IGROV1 ovarian, above 100 µM; in the test on PC-3 prostate, 7.61 µM; in the test on DU-145 prostate it was 6.5 µM. Also, the TGI came out at 4.38 µM in the test with MALME-3M melanoma, 8.07 µM with SF-295 CNS, 3.85 µM in the test with HCT-116 colon and 8.47 µM with 786-0 renal.
Consider `Oc1ccc(CN(Cc2ccc(C(F)(F)F)cc2)Cc2ccc(O)c3ncccc23)c2cccnc12`, for which the GI50 with NCI-H226 lung is 0.0512 µM; in the test on SK-OV-3 ovarian, 0.0655 µM; in the test with UO-31 renal, 0.0279 µM; in the test on IGROV1 ovarian, 0.0584 µM; in the test with PC-3 prostate, below 0.0146 µM; in the test on DU-145 prostate, 0.0338 µM. The GI50 in the test on MALME-3M melanoma is 0.0461 µM; in the test with SF-295 CNS, 0.0182 µM; in the test on HCT-116 colon, below 0.01 µM; in the test on 786-0 renal, 0.0394 µM. Further, the TGI in the test on NCI-H226 lung is 11.7 µM; with SK-OV-3 ovarian, above 48.3 µM; with UO-31 renal, 2.19 µM; with IGROV1 ovarian it was above 100 µM; in the test on PC-3 prostate, above 100 µM; in the test on DU-145 prostate, above 100 µM. For the same compound, the TGI in the test with MALME-3M melanoma is above 100 µM; in the test with SF-295 CNS it was above 100 µM; in the test on HCT-116 colon, above 100 µM; in the test with 786-0 renal, 5.21 µM.
`COc1ccc(-n2c3c(c4c(CN(C)C)c(O)c(C)cc42)CCc2ccccc2C3=O)cc1`: the GI50 was 28.3 µM with NCI-H226 lung; above 100 µM in the test on SK-OV-3 ovarian; 45.9 µM in the test on UO-31 renal; 21 µM in the test with IGROV1 ovarian; 11.7 µM with PC-3 prostate; 21.4 µM with DU-145 prostate. In addition, the GI50 is 25.4 µM in the test on MALME-3M melanoma, 35.6 µM in the test with SF-295 CNS, 34.4 µM in the test with HCT-116 colon and 29.7 µM in the test with 786-0 renal. The TGI in the test with NCI-H226 lung is above 100 µM; in the test with SK-OV-3 ovarian, above 100 µM; with UO-31 renal, above 100 µM; in the test on IGROV1 ovarian, 85.2 µM; in the test on PC-3 prostate it was 50.3 µM; in the test on DU-145 prostate it was above 100 µM. Also, the TGI in the test with MALME-3M melanoma, in the test on SF-295 CNS, in the test on HCT-116 colon and in the test with 786-0 renal was above 100 µM in each case.
On to `Cc1cc(NC(=O)NC(=O)c2ccccc2NC(=O)CN)ccc1Oc1ncc(Br)cn1`, for which the GI50 was 0.238 µM in the test with NCI-H226 lung; 2.1 µM with UO-31 renal; 0.284 µM in the test on IGROV1 ovarian; 0.0816 µM in the test with PC-3 prostate; 0.342 µM in the test with DU-145 prostate; below 0.01 µM in the test with MALME-3M melanoma. Moreover, the GI50 with SF-295 CNS was below 0.01 µM; in the test with HCT-116 colon, 0.43 µM; in the test on 786-0 renal it was 0.4 µM. The TGI with SK-OV-3 ovarian is 35.8 µM and 13.9 µM; in the test on UO-31 renal, 50.1 µM and > 100 µM; in the test on IGROV1 ovarian, 27.7 µM and 49.5 µM; in the test on PC-3 prostate, 18.8 µM and > 100 µM; with DU-145 prostate, 20.1 µM and 15.9 µM; in the test with MALME-3M melanoma it was 75 µM and 89.6 µM. For the same compound, the TGI in the test on HCT-116 colon is 26.1 µM and > 100 µM; in the test on 786-0 renal, 24.2 µM and 17.8 µM.
In the case of `Cc1ccccc1C(C(=O)NC1CCCCC1)N(C(=O)Cn1ccnc1C)c1cccc(F)c1` (configuration not stated), the GI50 was above 87.4 µM in the test on NCI-H226 lung; above 65.4 µM in the test on SK-OV-3 ovarian; above 51.6 µM in the test with UO-31 renal; above 77 µM with IGROV1 ovarian; above 100 µM with PC-3 prostate; above 76.6 µM in the test on DU-145 prostate. Further, the GI50 was above 52.8 µM in the test on MALME-3M melanoma, 28.8 µM with SF-295 CNS, 46.2 µM in the test with HCT-116 colon and 37.2 µM in the test on 786-0 renal. Also, the TGI in the test on NCI-H226 lung, in the test on SK-OV-3 ovarian, in the test with UO-31 renal, in the test on IGROV1 ovarian, with PC-3 prostate and in the test with DU-145 prostate was above 100 µM in each case. The TGI in the test with MALME-3M melanoma was above 100 µM; with SF-295 CNS it was above 65.6 µM; with HCT-116 colon it was above 100 µM; in the test with 786-0 renal, above 100 µM.
`COc1ccc2[nH]cc(-c3nc(-c4c[nH]c5ccncc45)cs3)c2c1`: the GI50 with NCI-H226 lung was 2.36 µM; in the test with SK-OV-3 ovarian it was 13.7 µM; with UO-31 renal, 1.75 µM; with IGROV1 ovarian it was 1.93 µM; in the test on PC-3 prostate, 2.13 µM; in the test on DU-145 prostate, 2.73 µM. Further, the GI50 in the test with MALME-3M melanoma is 2 µM; in the test on SF-295 CNS, 1.7 µM; in the test with HCT-116 colon, 1.77 µM; with 786-0 renal, 1.84 µM. In addition, the TGI with NCI-H226 lung was 6.58 µM; in the test with SK-OV-3 ovarian it was 26.6 µM; with UO-31 renal it was 3.46 µM; in the test on IGROV1 ovarian it was 3.9 µM; in the test on PC-3 prostate it was 5.23 µM; in the test with DU-145 prostate it was 8.57 µM. For the same compound, the TGI with MALME-3M melanoma turned out to be 3.58 µM; in the test on SF-295 CNS, 3.19 µM; with HCT-116 colon, 3.33 µM; with 786-0 renal, 3.41 µM.
